Results published in patent US11807625B2, “Capsid inhibitors for the prevention of HIV” (Gilead Sciences, Inc., priority 2019, dated 2023).

Assay: PK of compound of Formula (Ia) after single subcutaneous dose of solution formulations in Wistar Han rats
Format: in vivo
Conditions: male, Wistar Han, rat, plasma, sc, 50 mg/kg, SC 50 mg/kg
Procedure: Formulations containing the compound of Formula (Ia), or a pharmaceutically acceptable salt thereof, were prepared as solutions and optionally administered subcutaneously or intramuscularly to rats, rabbits, and/or dogs.
(§1) A solution of about 400 mg/mL of the compound of Formula (Ia) having 19.14 w/w % water, 40.66 w/w % PEG 300, 35.20 w/w % of a sodium salt of a compound of Formula (Ia), and 5.00% ethanol was prepared. The solution was administered subcutaneously to male Wistar Han rats at a dose level of about 50 mg/kg and dose volume of 0.125 mL/kg and the pharmacokinetic (PK) profile was determined.
as §1, with “500” for “400”, “16.64” for “19.14”, “35.36” for “40.66”, “43.00” for “35.20”, “0.1” for “0.125”
(§2) A solution of about 400 mg/mL of the compound of Formula (Ia) having 17.00 w/w % water, 36.40 w/w % PEG 300, 35.20 w/w % of a sodium salt of a compound of Formula (Ia), 5.00 w/w % ethanol, and 6.40 w/w % poloxamer 188 was prepared. The solution was administered subcutaneously to male beagle dogs at a dose level of about 12 mg/kg and male Wistar Han rats at a dose level of about 50 mg/kg. The pharmacokinetic profiles were determined, and the results for dogs are summarized in Table and Table, while the results for rats are summarized in Table and Table below.
as §2, with “500” for “400”, “14.06” for “17.00”, “30.12” for “36.40”
A solution of about 300 mg/mL of the compound of Formula (Ia) having 23.33 w/w % water, 48.99 w/w % PEG 300, 26.47 w/w % of a sodium salt of a compound of Formula (Ia), and 1.21 w/w % poloxamer 188 was prepared. The solution was administered subcutaneously to male beagle dogs at a dose level of about 6 mg/kg and male Wistar Han rats at a dose level of about 50 mg/kg. The pharmacokinetic profiles were determined, and the results for dogs are summarized in Table and Table, while the results for rats are summarized in Table and Table below.
as §2, with “18.80” for “17.00”, “40.25” for “36.40”, “34.38” for “35.20”, “1.57” for “6.40”
as §2, with “500” for “400”, “16.29” for “17.00”, “34.88” for “36.40”, “41.92” for “35.20”, “1.91” for “6.40”
A solution of about 400 mg/mL of the compound of Formula (Ia) having 20.90 w/w % water, 44.72 w/w % PEG 300, and 34.38 w/w % of a sodium salt of a compound of Formula (Ia) was prepared. […]

[1] = individual rats, solution V, 300 mg/mL
[2] = mean (rat #1 NS), solution T, 400 mg/mL
[3] = mean, n = 3 rats, solution R, 400 mg/mL
[4] = mean, n = 3 rats, solution S, 500 mg/mL
[5] = mean, n = 3 rats, solution V, 300 mg/mL
[6] = mean, n = 5 rats, solution U, 500 mg/mL
[7] = individual rats, solution S, 500 mg/mL
[8] = Wistar Han rats, 400 mg/mL solution AA (6.25% poloxamer 188), Mean n = 4
[9] = Wistar Han rats, 400 mg/mL solution AA (6.25% poloxamer 188), animals #1-#4

SMILES: CC(C)(C#Cc1ccc(-c2ccc(Cl)c3c(NS(C)(=O)=O)nn(CC(F)(F)F)c23)c([C@H](Cc2cc(F)cc(F)c2)NC(=O)Cn2nc(C(F)(F)F)c3c2C(F)(F)[C@@H]2C[C@H]32)n1)S(C)(=O)=O [compound of Formula (Ia)]
- concentration at 3360 h [1]: 81.1 nM
- concentration at 3360 h [2]: 117 nM
- concentration at 3360 h [3]: 111 nM
- concentration at 3360 h [4]: 110 nM
- concentration at 3360 h [5]: 77.4 nM
- concentration at 3360 h [6]: 88 nM
- concentration at 3696 h [7]: 102 nM
- concentration at 3696 h [1]: 72.2 nM
- concentration at 3696 h [2]: 73.7 nM
- concentration at 3696 h [3]: 94.8 nM
- concentration at 3696 h [4]: 92 nM
- concentration at 3696 h [5]: 68.4 nM
- concentration at 3696 h [6]: 70.5 nM
- concentration at 4032 h [7]: 118 nM
- concentration at 4032 h [1]: 56.6 nM
- concentration at 4032 h [2]: 71.5 nM
- concentration at 4032 h [3]: 102 nM
- concentration at 4032 h [4]: 110 nM
- concentration at 4032 h [5]: 52.3 nM
- concentration at 4032 h [6]: 65.7 nM
- concentration at 4704 h [7]: 62.9 nM
- concentration at 4704 h [1]: 35.9 nM
- concentration at 4704 h [2]: 44.3 nM
- concentration at 4704 h [3]: 69 nM
- concentration at 4704 h [4]: 71.5 nM
- concentration at 4704 h [5]: 30.2 nM
- concentration at 4704 h [6]: 43.1 nM
- concentration at 5376 h [2]: 34.4 nM
- concentration at 5376 h [3]: 58 nM
- concentration at 5376 h [4]: 58.8 nM
- concentration at 5376 h [6]: 38.9 nM
- concentration at 6048 h [2]: 29 nM
- concentration at 6048 h [3]: 30.2 nM
- concentration at 6048 h [4]: 45 nM
- concentration at 6048 h [6]: 36.2 nM
- concentration at 6720 h [2]: 21.5 nM
- concentration at 6720 h [3]: 26.3 nM
- concentration at 6720 h [4]: 37 nM
- concentration at 6720 h [6]: 26.5 nM
- concentration at 7392 h [3]: 16.5 nM
- concentration at 7392 h [4]: 29.4 nM
- concentration at 8064 h [3]: 12.3 nM
- concentration at 8064 h [4]: 24.8 nM
- concentration at 1 h [8]: 35.9 nM
- concentration at 1 h [9]: 29 nM
- concentration at 3 h [8]: 69.5 nM
- concentration at 3 h [9]: 67.9 nM
- concentration at 8 h [8]: 122 nM
- concentration at 8 h [9]: 109 nM
- concentration at 24 h [8]: 233 nM
- concentration at 24 h [9]: 259 nM
- concentration at 48 h [8]: 251 nM
- concentration at 48 h [9]: 272 nM
- concentration at 72 h [8]: 227 nM
- concentration at 72 h [9]: 231 nM
- concentration at 96 h [8]: 201 nM
- concentration at 96 h [9]: 211 nM
- concentration at 168 h (Wistar Han rats, 400 mg/mL solution AA (6.25% poloxamer 188), 168 h, Mean n = 4): 141 nM
- concentration at 336 h (Wistar Han rats, 400 mg/mL solution AA (6.25% poloxamer 188), 336 h, Mean n = 4): 130 nM
- concentration at 504 h (Wistar Han rats, 400 mg/mL solution AA (6.25% poloxamer 188), 504 h, Mean n = 4): 131 nM
- concentration at 672 h [8]: 117 nM
- concentration at 672 h [9]: 130 nM
- concentration at 840 h [8]: 118 nM
- concentration at 840 h [9]: 170 nM
- concentration at 1008 h [8]: 103 nM
- concentration at 1008 h [9]: 134 nM
- concentration at 1344 h [8]: 77.1 nM
- concentration at 1344 h [9]: 93 nM
- concentration at 1680 h (Wistar Han rats, 400 mg/mL solution AA (6.25% poloxamer 188), 1680 h, Mean n = 4): 63.8 nM
